The values that follow come from US7279576B2 (Deciphera Pharmaceuticals, LLC, priority 2002, dated 2007).

The target of this assay is T1, nonphosphorylated Abl kinase (Homo sapiens, UniProt P00519).
T1 construct: purchased deCode Abl-2
Put plainly: Abl kinase assay (continuous spectrophotometric, pyruvate kinase/lactate dehydrogenase coupled). The class given is biochemical. Conditions: for inhibition at 10 µM: read-out: % Inhi @ 10 uM. How it is done: A continuous spectrophotometric kinase assay is used, wherein the production of adenosine diphosphate is coupled to the oxidation of NADH and measured as a reduction in absorbance at 340 nm. For details see: Barker, S. C. et al, Biochemistry (1995) 34:14843; and Schindler, T. et al, Science (2000) 289:1938.
The reaction mixture (200 μl) contained Abl kinase (3.7 nM. Abl-2 from deCode), peptide substrate ([…], 0.5 mM), ATP (0.5 mM), MgCl2 (5 mM), pyruvate kinase (16 units), lactate dehydrogenase (26 units), phosphoenol pyruvate (1 mM), and NADH (0.28 mM) in 100 mM Tris buffer, pH 7.5. The reaction was initiated by adding ATP. The absorption at 340 nm was monitored continuously for 3 to 4 hours at 30° C. on Polarstar Optima plate reader (BMG). Under these conditions, a turn over number (kcat) of 1.4 s^−1 was obtained for the preparation of Abl kinase, which is similar to that (1.7 s^−1) reported for the nonphosphorylated enzyme (Brasher and Van Etten, JBC (2000) 275, 35631-35637). No autophosphorylation of Abl was observed under these conditions since the rate is constant throughout the entire reaction time and presumably because the concentration of the enzyme used is below the critical level (˜10 nM) needed for the autophosphorylation (Brasher and Van Etten, JBC (2000) 275, 35631-35637).
Percentage of inhibition in the presence of an inhibitor was obtained by comparison of reaction rate (or slope) with that of a control. IC50 value was calculated from a series of % inhibition values determined at a range of concentrations of the inhibitor using Prism.

T1 sequence (P00519 whole entry): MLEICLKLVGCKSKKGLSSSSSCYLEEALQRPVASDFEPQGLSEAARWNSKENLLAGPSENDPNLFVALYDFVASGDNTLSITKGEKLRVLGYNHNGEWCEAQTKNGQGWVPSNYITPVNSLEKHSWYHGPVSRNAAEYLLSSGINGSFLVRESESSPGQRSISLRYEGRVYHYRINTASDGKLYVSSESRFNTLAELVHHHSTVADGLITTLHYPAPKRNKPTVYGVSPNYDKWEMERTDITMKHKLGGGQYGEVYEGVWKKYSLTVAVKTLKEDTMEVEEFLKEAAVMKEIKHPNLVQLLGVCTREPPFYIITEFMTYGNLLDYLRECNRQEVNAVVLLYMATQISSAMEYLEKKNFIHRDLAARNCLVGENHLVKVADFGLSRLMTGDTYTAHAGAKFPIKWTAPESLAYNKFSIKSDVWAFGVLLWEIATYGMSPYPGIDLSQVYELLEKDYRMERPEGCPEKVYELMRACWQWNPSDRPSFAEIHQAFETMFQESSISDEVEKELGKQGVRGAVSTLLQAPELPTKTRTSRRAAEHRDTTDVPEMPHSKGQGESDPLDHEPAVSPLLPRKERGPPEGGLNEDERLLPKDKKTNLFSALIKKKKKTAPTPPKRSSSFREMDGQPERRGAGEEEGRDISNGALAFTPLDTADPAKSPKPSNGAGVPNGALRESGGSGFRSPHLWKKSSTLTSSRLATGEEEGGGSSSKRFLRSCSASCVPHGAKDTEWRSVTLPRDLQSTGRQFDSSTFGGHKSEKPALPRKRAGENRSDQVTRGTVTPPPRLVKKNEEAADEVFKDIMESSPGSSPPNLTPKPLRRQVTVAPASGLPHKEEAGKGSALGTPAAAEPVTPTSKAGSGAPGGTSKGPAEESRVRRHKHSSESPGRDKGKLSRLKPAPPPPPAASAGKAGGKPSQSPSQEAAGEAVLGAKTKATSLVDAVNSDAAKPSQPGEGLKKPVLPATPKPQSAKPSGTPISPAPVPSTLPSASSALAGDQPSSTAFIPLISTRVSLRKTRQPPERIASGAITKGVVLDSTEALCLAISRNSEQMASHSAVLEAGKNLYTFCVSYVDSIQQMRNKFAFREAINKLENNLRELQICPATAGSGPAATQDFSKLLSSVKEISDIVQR

For `Cc1ccc(NC(=O)c2ccc(CN3CC(=O)NS3(=O)=O)cc2)cc1Nc1nccc(-c2ccccc2)n1` [Example 23], the inhibition at 10 µM was found to be 10%.
On the same count and under the same terms, for `CNC(=O)CN(CC(=O)NC)C(=O)c1ccc(C(=O)Nc2ccc(C)c(Nc3ncccn3)c2)cc1` [Example 7, N^1,N^1-bis((methylcarbamoyl)methyl)-N^4-(4-methyl-3-(pyrimidin-2-ylamino)phenyl)terephthalamide] the value was 9%; for `Cc1ccc(NC(=O)c2ccc(Cn3sc(=O)n(-c4ccccc4)c3=O)cc2)cc1Nc1nccc(-c2ccccc2)n1` [Example 9, N-(3-(4-phenylpyrimidin-2-ylamino)-4-methylphenyl)-4-((3,5-dioxo-4-phenyl-1,2,4-thiadiazolidin-2-yl)methyl)benzamide], 42%; for `CNC(=O)CN(CC(=O)NC)C(=O)c1ccc(C(=O)Nc2ccc(C)c(Nc3nccc(-c4ccccc4)n3)c2)cc1` [Example 8, N^1,N^1-bis((methylcarbamoyl)methyl)-N^4-(3-(4-phenylpyrimidin-2-ylamino)4-methylphenyl)terephthalamide], 20%.
On the same count and under the same terms, for `Cc1ccc(NC(=O)c2ccc(CNC(=O)NS(=O)(=O)N3CCCC3)cc2)cc1Nc1nccc(-c2ccccc2)n1` [Example 3] the value was 15%; for `Cc1ccc(NC(=O)c2ccc(CNS(=O)(=O)NC(=O)N3CCCC3)cc2)cc1Nc1ncccn1` [Example 2], 9%.
Still for that read-out and setting: to `Cc1ccc(NC(=O)c2ccc(C(=O)N3C(=O)OC[C@@H]3c3ccccc3)cc2)cc1Nc1nccc(-c2ccccc2)n1` [Example 17, L-4-(2-oxo-4-phenyl-oxazolidine-3-carbonyl)-N-(4-methyl-3-(4-phenylpyrimidin-2-ylamino)phenyl)benzamide] belongs 18%; to `Cc1ccc(NC(=O)c2ccc(C(=O)N3C(=O)OC[C@H]3c3ccccc3)cc2)cc1Nc1nccc(-c2ccccc2)n1` [Example 16, D-4-(2-oxo-4-phenyl-oxazolidine-3-carbonyl)-N-(4-methyl-3-(4-phenylpyrimidin-2-ylamino)phenyl)benzamide], 9%.
With `Cc1ccc(NC(=O)c2ccc(CN3CC(=O)N(C)C3=O)cc2)cc1Nc1ncccn1` [Example 5, 4-((3-methyl-2,4-dioxoimidazolidin-1-yl)methyl)-N-(4-methyl-3-(pyrimidin-2-ylamino)phenyl)benzamide], the inhibition at 10 µM was found to be 9%.
On to `Cc1ccc(NC(=O)c2ccc(C(=O)N3C(=O)OC[C@@H]3c3ccccc3)cc2)cc1Nc1nccc(-c2cccnc2)n1` [Example 19, L-4-(2-oxo-4-phenyl-oxazolidine-3-carbonyl)-N-[4-methyl-3-(4-pyridin-3-yl-pyrimidin-2-ylamino)-phenyl]benzamide], for which the IC50 was 4 µM and the inhibition at 10 µM turned out to be 75%.
Turning to `Cc1ccc(NC(=O)c2ccc(CN3CCS(=O)(=O)CC3)cc2)cc1Nc1nccc(N2CCOCC2)n1` [Example 15, 4-(((4,4-dioxothiomorpholinomethyl)1)methyl)-N-(4-methyl-3-(4-morpholinopyrimidin-2-ylamino)phenyl)benzamide], the inhibition at 10 µM worked out at 7%.
The same measure, in the same setting: to `Cc1ccc(NC(=O)c2ccc(Cn3c(=O)[nH]n(C)c3=O)cc2)cc1Nc1ncccn1` [Example 21, 4-((1-methyl-3,5-dioxo-1,2,4-triazolidin-4-yl)methyl)-N-(4-methyl-3-(pyrimidin-2-ylamino)phenyl)benzamide] belongs 12%; to `Cc1ccc(NC(=O)c2ccc(CN3C(=O)CNS3(=O)=O)cc2)cc1Nc1nccc(-c2ccccc2)n1` [Example 12, N-[4-Methyl-3-(4-phenyl-pyrimidin-2-ylamino)-phenyl]-4-(1,1,3-trioxo-[1,2,5]thiadiazolidin-2-ylmethyl)-benzamide], 52%; to `Cc1ccc(NC(=O)c2ccc(CN3CC(=O)N(C)C3=O)cc2)cc1Nc1nccc(-c2ccccc2)n1` [Example 6, N-(3-(4-phenylpyrimidin-2-ylamino)-4-methylphenyl)-4-((3-methyl-2,4-dioxoimidazolidin-1-yl)methyl)benzamide], 13%.
On the same count and under the same terms, for `Cc1ccc(NC(=O)c2ccc(CN3CCS(=O)(=O)CC3)cc2)cc1Nc1ncccn1` [Example 13, 4-(((4,4-dioxothiomorpholinomethyl)1)methyl)-N-(4-methyl-3-(pyrimidin-2-ylamino)phenyl)benzamide] the value was 31%; for `Cc1ccc(NC(=O)c2ccc(CN3CC(=O)NS3(=O)=O)cc2)cc1Nc1nccc(-c2cccnc2)n1` [Example 10], 16%; for `Cc1ccc(NC(=O)c2ccc(CNS(=O)(=O)NC(=O)N3CCCC3)cc2)cc1Nc1nccc(-c2ccccc2)n1` [Example 1], 10%.
With `Cc1ccc(NC(=O)c2ccc(C(=O)N3C(=O)OC[C@H]3c3ccccc3)cc2)cc1Nc1nccc(-c2cccnc2)n1` [Example 18, D-4-(2-oxo-4-phenyl-oxazolidine-3-carbonyl)-N-[4-methyl-3-(4-pyridin-3-yl-pyrimidin-2-ylamino)-phenyl]benzamide], the concentration for half-maximal inhibition (IC50) turned out to be 3 µM and the inhibition at 10 µM came out at 70%.
For the compound `Cc1ccc(NC(=O)c2ccc(CNC(=O)NS(=O)(=O)N3CCCC3)cc2)cc1Nc1ncccn1` [Example 4], the inhibition at 10 µM was found to be 24%.

One may read the IC50 as the midpoint of a concentration-inhibition curve. Read a low IC50 as inhibition by little substance.
